Results taken from US11465998B2, “Therapeutic compounds and methods of use thereof” (Regents of the University of Minnesota, priority 2019, dated 2022).
Where two headings read alike, the source gives them in different places.

Molecular target: T1, human NOD2 (Homo sapiens, UniProt Q9HC29)
T1 construct: host or cells: HEK293
Experiment: human NOD2 specific reporter gene assay (NF-κB induction)
Assay type: cell-based
Description: Example 5: High-throughput screens in porcine blood: Curated compound collections were obtained from the Institute for Therapeutics Discovery & Development at the University of Minnesota. Compound transfers from source (80 nL of 10 mM stocks) to assay plates were performed using an Echo 550 acoustic liquid handler (Labcyte, Sunnyvale, Calif.). For most libraries, a target final concentration of 10 μM of compound (in a final volume of 80 μL for the assay described below) was achieved. Compound plates were hermetically sealed and stored at −80° C. until used. Fresh, heparin-anticoagulated porcine blood from healthy animals were obtained under USDA supervision from Midwest Research Swine, LLC (Glencoe, Minn.). 80 μL of hematocrit-enriched porcine blood (low-speed centrifugation, followed by resuspension in DMEM supplemented with 10% fetal bovine serum) was added to compound plates and incubated for 15 h. The following day, the plates were briefly centrifuged (100 g, 10 min), and supernatants were transferred using an automated ViaFlow 384 transfer device (Integra Biosciences Corp., Hudson, N.H.) to assay plates containing of 10^6 cells/mL of each of the following NF-κB/secreted alkaline phosphatase reporter cells suspended in HEK-Blue Detection Media: human IFN-α/β, human IFN-γ, human TNF-α/IL-1β (InvivoGen, San Diego, Calif.). NF-κB translocation was assayed spectrophotometrically using an alkaline phosphatase-specific chromogen (present in HEK-detection medium as supplied by InvivoGen) at 620 nm using a SpectraMax M4 multimode microplate reader (Molecular Devices, Sunnyvale, Calif.). Z′ factors were computed for each TLR/NOD-specific signals. Hits were defined as signals >4σ (in-plate standard deviations for test compounds above negative control means), were deconvoluted in full dose-response assays in human TLR-2/-3/-4/-5/-7/-8/-9 and NOD-1/NOD-2-specific reporter cells in liquid handler-assisted assay formats as described previously. Example 6: Murine knockout cell-lines: The following reagents were obtained through BEI Resources, NIAID, NIH: the microglial cell line derived from MAL/MyD88 double knockout Mice (NR-9904), and the macrophage cell line derived from TRIF/TRAM knockout mice (NR-9568). Example 7: Human NOD1/2-specific reporter gene assays (NF-κB induction), and TLR-2/-3/-4/-5/-7/-8/-9/STING/ISG counter-screens: The induction of NF-κB was quantified using human TLR-2/-3/-4/-5/-7/-8/-9/NOD-1/NOD-2/STING/ISG-specific, rapid-throughput, liquid handler-assisted reporter gene assays as previously described by us (Wu, W. et al. J. Med. Chem. 2010, 53, 3198-3213; Shukla, N. M. et al. J. Med. Chem. 2010, 53, 4450-4465; Agnihotri, G. et al. J. Med. Chem. 2011, 54, 1490-1510 and Ukani, R. et al. Bioorg. Med. Chem. Lett. 2012, 22, 293-295). HEK293 cells stably co-transfected with the appropriate hTLR and secreted alkaline phosphatase (sAP) were maintained in HEK-Blue™ Selection medium. Stable expression of secreted alkaline phosphatase (sAP) under control of NF-κB/AP-1/IRF promoters is inducible by appropriate innate immune stimuli, and extracellular sAP in the supernatant is proportional to NF-κB/IRF induction. Reporter cells were incubated at a density of ˜10^5 cells/ml in a volume of 80 μl/well, in 384-well, flat-bottomed, cell culture-treated microtiter plates in the presence of graded concentrations of stimuli. sAP was assayed spectrophotometrically using an alkaline phosphatase-specific chromogen (present in HEK-detection medium as supplied by InvivoGen) at 620 nm. Example 8: Multiplexed immunoassays for human cytokines: Fresh human peripheral blood mononuclear cells (hPBMC) were isolated from human blood obtained by venipuncture in Cell Preparation Tubes (CPT, Beckton-Dickinson) with informed consent and as per guidelines approved by the University of Minnesota Human Subjects Experimentation Committee. Aliquots of PBMCs or THP-1 cells (10^5 cells in 100 μL/well) were stimulated for 16 h with graded concentrations of test compounds. […]

[1] = human NOD2 reporter gene assay, read-out: EC50 values, human NOD2 agonistic potency
[2] = human NOD2 specific reporter gene assay, arithmetic mean of quadruplicate samples, NA* indicates inactive under the tested conditions, read-out: hNOD2 Agonistic Activity (μM), EC50

T1 sequence (Q9HC29 whole entry): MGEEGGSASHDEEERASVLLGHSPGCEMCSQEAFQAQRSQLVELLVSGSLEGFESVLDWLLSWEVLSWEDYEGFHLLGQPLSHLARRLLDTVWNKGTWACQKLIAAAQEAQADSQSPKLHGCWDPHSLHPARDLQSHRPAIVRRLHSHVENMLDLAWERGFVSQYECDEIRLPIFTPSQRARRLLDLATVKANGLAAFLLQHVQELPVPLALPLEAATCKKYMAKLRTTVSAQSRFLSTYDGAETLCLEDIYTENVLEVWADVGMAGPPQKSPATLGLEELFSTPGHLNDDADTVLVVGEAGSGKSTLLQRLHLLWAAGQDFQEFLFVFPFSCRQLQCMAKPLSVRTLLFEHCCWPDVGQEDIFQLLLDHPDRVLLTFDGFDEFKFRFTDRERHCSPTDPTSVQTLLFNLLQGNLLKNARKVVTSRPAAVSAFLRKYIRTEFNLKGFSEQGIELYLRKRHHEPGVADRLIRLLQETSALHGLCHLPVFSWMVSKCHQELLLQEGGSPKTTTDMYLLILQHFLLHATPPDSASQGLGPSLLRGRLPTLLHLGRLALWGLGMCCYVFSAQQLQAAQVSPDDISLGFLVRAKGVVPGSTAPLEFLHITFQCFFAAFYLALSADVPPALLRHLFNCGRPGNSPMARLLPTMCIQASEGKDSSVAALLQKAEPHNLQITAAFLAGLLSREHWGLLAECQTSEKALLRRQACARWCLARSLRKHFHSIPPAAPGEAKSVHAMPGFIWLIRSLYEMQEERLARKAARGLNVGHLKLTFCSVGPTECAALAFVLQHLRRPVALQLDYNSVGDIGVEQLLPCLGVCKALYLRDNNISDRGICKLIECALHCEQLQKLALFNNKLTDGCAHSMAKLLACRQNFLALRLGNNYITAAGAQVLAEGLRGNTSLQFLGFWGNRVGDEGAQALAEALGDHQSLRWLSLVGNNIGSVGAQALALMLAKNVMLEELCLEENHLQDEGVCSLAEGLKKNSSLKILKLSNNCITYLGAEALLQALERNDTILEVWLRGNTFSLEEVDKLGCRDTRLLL

Row | EC50 [1] | EC50 [2] | Compound
1 | 0.68 µM | 0.684 µM | CCCCCc1nc2ccccc2n1-c1csc(C(N)=O)c1 [Compound 7e, 4-(2-Pentyl-1H-benzo[d]imidazol-1-yl)thiophene-2-carboxamide]
2 | 0.66 µM | 0.664 µM | CCCCCCc1nc2ccccc2n1-c1csc(C(N)=O)c1 [Compound 7f, 4-(2-Hexyl-1H-benzo[d]imidazol-1-yl)thiophene-2-carboxamide]
